Measured values from patent publication US20230293530A1, “AGENTS FOR SENSITIZING SOLID TUMORS TO TREATMENT” (Yeda Research and Development Co. Ltd., priority 2020, published 2023).

Key:
MC38 cells = assay: Nucleotide levels by LC-MS in MC38 cells with or without mizoribine; format: cell-based, mouse; settings: 300 µM mizoribine, 24 h
Protocol: A) Purine/pyrimidine ratio is increased upon nutrient deprivation in […] colon cancer cells. MC38 cells were grown in either regular medium or in medium without glucose for 24 h. Nucleotide levels were measured by LC-MS. Purine/pyrimidine ratio was calculated by dividing (AMP+GMP) AUC by (UMP+CMP) AUC. B) 4T1 cells with and without shASS1 were grown in glucose free medium either supplemented or not with 10 mM L-Name for 48 hrs. Nucleotide levels were measured by LC-MS. Purine/pyrimidine ratio was calculated by dividing the sum levels of (AMP+GMP) by the sum levels of (UMP+CMP+TMP). […] MC38 cells were grown either with or without 300 µM mizoribine for 24 h. Nucleotide levels were measured by LC-MS. […] Cell viability was measured by crystal violet staining. […]
LC-MS analysis: The LC-MS/MS instrument consisting of an Acquity I-class UPLC system (Waters) and Xevo TQ-S triple quadrupole mass spectrometer (Waters), equipped with an electrospray ion source, and operated in positive ion mode was used for analysis of nucleoside monophosphates. […] Nucleotide concentration was calculated using a standard curve of the relevant nucleotide concentration in each sample. Standard curves included increasing concentration of all measured nucleotides ranging from 0-10 ug/ml that were positioned at the beginning and at the end of each run. […]

4T1 cells = assay: Cell viability by crystal violet staining, 4T1; format: cell-based, murine; settings: 300 µM mizoribine, 24 h
Protocol: A) Purine/pyrimidine ratio is increased upon nutrient deprivation in […] colon cancer cells. MC38 cells were grown in either regular medium or in medium without glucose for 24 h. Nucleotide levels were measured by LC-MS. Purine/pyrimidine ratio was calculated by dividing (AMP+GMP) AUC by (UMP+CMP) AUC. B) 4T1 cells with and without shASS1 were grown in glucose free medium either supplemented or not with 10 mM L-Name for 48 hrs. Nucleotide levels were measured by LC-MS. Purine/pyrimidine ratio was calculated by dividing the sum levels of (AMP+GMP) by the sum levels of (UMP+CMP+TMP). […] MC38 cells were grown either with or without 300 µM mizoribine for 24 h. Nucleotide levels were measured by LC-MS. […] 4T1 (left panel) and MC38 cells (right panel) were grown for 24 h with or without 300 µM mizoribine. Cell viability was measured by crystal violet staining. Each experiment was conducted with biological and technical replicates and repeated at least three times. All error bars represent SER. * P<0.05, ** denotes P<0.01, ***P<0.001.

## NC(=O)c1ncn([C@@H]2O[C@H](CO)[C@@H](O)[C@H]2O)c1O [Mizoribine, mizoribine]
MC38 cells
  purine/pyrimidine ratio (AMP+GMP) AUC/(UMP+CMP) AUC: decreased purine/pyrimidine ratio
4T1 cells
  cancer cell proliferation (cell viability, crystal violet): restricts ASS1-overexpressing cancer cell proliferation
